Source: ChEMBL document CHEMBL5724562, “Toxicity screen in isolated B cell assay results for EUbOPEN Chemogenomics Library” (2024)
Non-standard residues stand in square brackets, D forms with d. Residues, ends and D or L forms follow the SMILES beside them. *: point of attachment. dPhe(4-NHCONH2) = NC(=O)Nc1ccc(C[C@@H](N)C(=O)O)cc1; Dihydroorotyl(S) = O=C1C[C@@H](C(=O)*)NC(=O)N1; dPhe(4-Cl) = N[C@H](Cc1ccc(Cl)cc1)C(=O)O; Phe(4-NH2) = Nc1ccc(C[C@H](N)C(=O)O)cc1; d2Nal = N[C@H](Cc1ccc2ccccc2c1)C(=O)O; Arg(Me) = CNC(=N)NCCC[C@H](N)C(=O)O; Lys(iPr) = CC(C)NCCCC[C@H](N)C(=O)O; d3Pal = N[C@H](Cc1cccnc1)C(=O)O; d4Pal = N[C@H](Cc1ccncc1)C(=O)O; azaGly = NNC(=O)O

Each molecule was assayed on B cell (assay: Cytotoxicity screening of chemical probes in isolated B cell assay. Data is normalized to DMSO control, the cell viability average of replicates are reported. Reduction of ATP level more than 20% indicate compromised cell health status.). Conditions: human, 0.1 µM.
`CCCOc1ccc([C@H]2[C@H](C(=O)O)[C@@H](c3ccc4c(c3)OCO4)CN2CC(=O)Nc2c(CC)cccc2CC)cc1` [A-192621] was tested, and the “Cell Viability” value was 97.3784%. With `CN1C(=O)[C@@H](N2CCc3c(nn(Cc4ccccc4)c3Br)C2=O)COc2ccccc21` [TP-030-2] the “Cell Viability” value was 101.749%. For `O=C(O)[C@H]1[C@H](Cn2nnc3ccccc3c2=O)CC[C@@H]1C(=O)c1ccc(OCCC2CCOCC2)cc1` [BAY-7598], the “Cell Viability” value was 98.8077%. `CNC(=O)c1ccc(Nc2ncc(C(F)(F)F)c(NCc3nccnc3N(C)S(C)(=O)=O)n2)cc1` [DEFACTINIB] was tested, and the “Cell Viability” value was 103.534%. With `CN(C)C(=O)Cn1cc(-c2nc([C@@](C)(c3ccc(-c4cnc(N)nc4)cc3)C3CC3)no2)cn1` [BI 665915] the “Cell Viability” value was 103.286%. `Nc1c(C(=O)NCc2ccc(C(=O)NCCCC3CCCCC3)cc2)cnn1-c1ccccc1` [SR-318] was tested, and the “Cell Viability” value was 97.9561%. In the case of `O=C(NCc1ncc(C(F)(F)F)cc1Cl)c1ccc2c(c1)C1(CCS(=O)(=O)CC1)[C@H](C1CC1)N2S(=O)(=O)c1ccc(F)cc1` [BAY-784], the “Cell Viability” value is reported as 98.8405%.

Same assay, conditions: human, 1 µM
With `Nc1ncnc2c1ccn2[C@@H]1O[C@H]([C@H](O)c2ccccc2)[C@@H](O)[C@H]1O` the “Cell Viability” value was 101.429%. With `C[C@@H](NC(=O)Nc1cc2[nH]ncc2c(CO)n1)c1ccccc1` [ERKi] the “Cell Viability” value was 88.9841%. `CC(C)C[C@@H]1NC(=O)[C@@H](C(C)C)NC(=O)[C@@H]2CCCN2C(=O)[C@@H](CC(=O)O)NC(=O)[C@@H](Cc2c[nH]c3ccccc23)NC1=O` [BQ-123] (cyclo(L[dW][dD]P[dV])) was tested, and the “Cell Viability” value was 98.787%. With `c1ccc2oc(-c3csc(C4CCN(Cc5nc6ncccc6[nH]5)CC4)n3)cc2c1` the “Cell Viability” value was 83.0928%. With `CC1=C(C#N)C(c2ccc3[nH]nc(C)c3c2)C(C#N)=C(C)N1` [BAY-474] the “Cell Viability” value was 96.499%. `CN1CCN(c2ccc(-c3cccc(CN4CCOCC4)c3)cc2NC(=O)c2c[nH]c(=O)cc2C(F)(F)F)CC1` was tested, and the “Cell Viability” value was 99.6552%. `COc1cc(C#N)ccc1S(=O)(=O)Nc1ccc2c(c1)cc(C)c(=O)n2C` was tested, and the “Cell Viability” value was 99.4263%. With `CC(=O)C1=C(C)N(c2cccc(C(F)(F)F)c2)C(=O)N[C@@H]1c1ccc(C#N)nc1` [BAY-678] the “Cell Viability” value was 97.287%. In the case of `COc1cc(OC)cc(-c2noc(N3CCN(C)C4(CCN(c5ccnc(C)c5)CC4)C3)n2)c1`, the “Cell Viability” value is reported as 97.1072%. For `COC(c1ccccc1)(c1ccccc1)[C@H](Oc1nc(C)cc(C)n1)C(=O)O` [AMBRISENTAN], the “Cell Viability” value was 104.904%. For `COc1cc(C(=O)N2CC[C@@H](O)[C@@H](N)C2)cc2nc(-c3cc4ccccc4n3CC3CC3)n(C)c12.Cl`, the “Cell Viability” value was 96.5784%. For `CC(=O)Nc1c(C(C)=O)c(=O)n(C)c2nc(-c3ccc(Cl)cc3Cl)c(-c3ccc(Cl)cc3)cc12` [NAPHTHYRIDINONE], the “Cell Viability” value was 96.2894%. In the case of `CN1C[C@H](Nc2cnn(C)c(=O)c2Br)C[C@H](c2ccccc2)C1`, the “Cell Viability” value is reported as 94.5817%. With `COc1ccccc1S(=O)(=O)Nc1ccc2c(c1)CN(C)C(=O)N2` the “Cell Viability” value was 94.2739%. In the case of `CC(C)N(CCCCOCC(=O)NS(C)(=O)=O)c1cnc(-c2ccccc2)c(-c2ccccc2)n1` [SELEXIPAG], the “Cell Viability” value is reported as 99.3334%. For `O=C(NC[C@H](O)CN1CCc2ccccc2C1)c1ccnc(NC2CCC2)c1`, the “Cell Viability” value was 91.5741%. For `O=C1CCc2cc(Nc3cc(OC4CCOCC4)c([N+](=O)[O-])cc3Cl)ccc2N1`, the “Cell Viability” value was 94.8245%. For `CC(C)(O)c1cncc(-c2nc3ccc(F)cc3n2C2CC2)c1` [MSD-CYP11B2], the “Cell Viability” value was 100.571%. With `CCN(CC)S(=O)(=O)Nc1cccc(-c2ccc3c(NC(=O)C4CC4)n[nH]c3c2)c1` the “Cell Viability” value was 95.3727%. For `Cc1c(Nc2ccc(S(=O)(=O)N3CCN(C)CC3)cc2F)nc2ccc(-c3cnn(C4CC4)c3)cn2c1=O`, the “Cell Viability” value was 96.0793%. For `C[C@H](NC(=O)c1cnc2n1[C@](C)(Cc1ccc(C#N)cc1)C(=O)N2c1cc(Cl)c(F)c(Cl)c1)C(=O)NC1(c2ccccn2)CC1` [BI 1950], the “Cell Viability” value was 96.273%. For `CC(=O)N[C@H](Cc1ccc2ccccc2c1)C(=O)N[C@H](Cc1ccc(Cl)cc1)C(=O)N[C@H](Cc1cccnc1)C(=O)N[C@@H](CO)C(=O)N[C@@H](Cc1ccc(NC(=O)[C@@H]2CC(=O)NC(=O)N2)cc1)C(=O)N[C@H](Cc1ccc(NC(N)=O)cc1)C(=O)N[C@@H](CC(C)C)C(=O)N[C@@H](CCCCNC(C)C)C(=O)N1CCC[C@H]1C(=O)N[C@H](C)C(N)=O` [DEGARELIX] (Ac-[d2Nal][dPhe(4-Cl)][d3Pal]S[Phe(4-NH2)](Dihydroorotyl(S))[dPhe(4-NHCONH2)]L[Lys(iPr)]P[dA]-NH2), the “Cell Viability” value was 102.434%. With `COc1ccccc1C(=O)Nc1cc2c(cc1N1CCCC1)n(C)c(=O)n2C` the “Cell Viability” value was 98.47%. With `Cl.Cl.Cl.c1ccc(N2CCN(Cc3nc4ccccc4[nH]3)CC2)nc1` the “Cell Viability” value was 98.1024%. `Cn1cnc2c(F)c(Nc3ccc(Br)cc3Cl)c(C(=O)NOCCO)cc21` [SELUMETINIB] was tested, and the “Cell Viability” value was 92.6054%. In the case of `O=C(c1ccc(C(=O)N2CCC(N3CCCC3)CC2)c(Nc2ccccc2)c1)N1CCC(N2CCCC2)CC1`, the “Cell Viability” value is reported as 93.0388%. In the case of `COc1cc(Nc2ccnc3ccc(Br)cc23)cc(OC)c1OC`, the “Cell Viability” value is reported as 95.869%. In the case of `CN(C)C(=O)/C(C#N)=C/c1ccc(-c2nc3cnc4[nH]ccc4c3n2C2CCCCC2)o1`, the “Cell Viability” value is reported as 89.3026%. With `CCCOc1ccn2c(C(C)=O)cc(-c3ccccc3S(C)(=O)=O)c2c1` the “Cell Viability” value was 98.3118%. For `O=C(NC[C@@H]1[C@H]2CN(C(=O)OCc3cc(C(F)(F)F)cc(C(F)(F)F)c3)C[C@@H]12)c1ccc2[nH]nnc2c1` [BI 2545], the “Cell Viability” value was 100.102%. `CC(=O)c1cc(-c2cc(C(=O)NC3CC3)ccc2C)c2ncccn12` was tested, and the “Cell Viability” value was 95.0596%. For `CNC(=N)NCCC[C@H](NC(=O)[C@H](CC(C)C)NC(=O)NNC(=O)[C@H](Cc1ccccc1)NC(=O)[C@H](CO)NC(=O)[C@H](CC(N)=O)NC(=O)[C@@H](Cc1ccncc1)NC(=O)[C@H](N)Cc1ccc(O)cc1)C(=O)N[C@@H](Cc1ccccc1)C(N)=O` [KISS1-305] (H-[dY][d4Pal]NSF[azaGly]L[Arg(Me)]F-NH2), the “Cell Viability” value was 101.037%. With `Cc1nc[nH]c1CCN.Cl` the “Cell Viability” value was 99.4273%. `Cc1cc(OCCCS(C)(=O)=O)cc(C)c1-c1cccc(COc2ccc3c(c2)OC[C@H]3CC(=O)O)c1` was tested, and the “Cell Viability” value was 101.968%.
